Data reported in patent US20070208087A1, “Compounds, compositions and methods for the treatment of inflammatory diseases” (priority 2001, published 2007).
“And” between values parts separate entries of the source, which are not always exact repeats. Equal entries are not always repeated. Where two headings read alike, the source gives them in different places.

Key:
Format in all cases: cell-based
[1] = system: EOC 13.31 microglial cells; test: NO release inhibition screen in LPS/IFNγ stimulated microglia, Griess reaction at 48 hours (Example 7); settings: for μM NO release Avg / % inhibition / inhibition at 50 µM: 50 uM + 10 μg/ml LPS/10 ng/ml IFNγ, 48 hours; for % inhibition: 50 µM; for inhibition at 50 µM: Microglia, 48 h
Protocol: In this experiment, additional bis- and tris-dihydroxyaryl compounds were screened for their ability to inhibit nitric oxide release from microglial cells. Microglial cells stimulated with LPS/IFNγ release nitric oxide. […] This is a continuation of screening experiments. EOC 13.31 microglial cells were plated into 96 well plates. At 24 hours and at confluency, cells were treated with 10 μg/ml LPS/10 ng/ml IFNγ+50 uM bis- and tris-dihydroxyaryl compounds.

microglia = test: Ranking of NO release inhibition (Example 12); settings: Microglia, ranking table
Source text: The bis- and tris-dihydroxyaryl compounds were ranked in order of effectiveness for the inhibition of NO release as set out in Table 8.

[2] = system: EOC 13.31 microglia cells; test: Inhibition of NO release from microglia following 24 hours pretreatment (Example 10); settings: for inhibition at 50 µM: Microglia
Protocol: This experiment was designed to determine if pretreatment for 24 hours with bis- and tris-dihydroxyaryl compounds changes NO inhibition previously observed with concurrent exposure of bis- and tris-dihydroxyaryl compounds. […] This study seeks to determine if pretreatment with bis- and tris-dihydroxyaryl compounds increases NO release inhibition. EOC 13.31 microglia cells were plated at 1×10^6 cells/ml in 96 well plates. After 48 hours, confluent cells were exposed to 50 μM compound (stock 10 mM in DMSO) prepared in fresh cell culture media. After 24 hours, 10 μg/ml LPS and 10 ng/ml IFNγ was added to wells directly without a media change. Cells were incubated for a further 48 hours and nitric oxide release was measured using the Griess Reaction.

[3] = system: TNF-α release from microglia; test: TNF-α release from LPS/IFNγ stimulated microglia, TNF-α ELISA (Example 11); settings: 50 uM compound, TNF-α release, 10 ug LPS and 10 ng IFNγ, 24 hours; for % inhibition: individual replicates, 50 µM; for inhibition at 50 µM: Microglia, 24 h, read-out: Avg % Inhibition
Protocol: Also, bis- and tris-dihydroxyaryl compound's ability to inhibit NO release strongly supports their interference with the inflammatory cascade and utlimately inhibition of inflammation. Microglia cells were plated at 1×10^5 cells/ml into 96 well plates. At day three, they were treated with 50 μM bis- and tris-dihydroxyaryl compound for 1 hour and then exposed to 10 μg/ml LPS+10 ng/ml IFNγ for 24 hours. 10 μl of media was removed and stored at −80° until TNF-α ELISA assays were performed. Samples were diluted 1:50 before running the TNF-α ELISA (kit commercially available from Sigma).

Microglial cells = test: Dose response inhibition of NO release from microglia, 0.5-500 μM (Example 9); settings: for μM NO release / μM NO release (No LPS average subtracted): 3 replicates
Protocol: This experiment was designed to determine the dose response inhibition of NO release from microglia by bis- and tris-dihydroxyaryl compounds when stimulated with LPS/IFNγ. Earlier experiments have demonostrated that some bis- and tris-dihydroxyaryl compounds are good inhibitors of NO release from microglia. This experiment is designed to determine a dose response for various effective bis- and tris-dihydroxyaryl compounds. Microglial cells were plated into 96 well plates at 1×10^5 cells/ml. At 48 hours, media was exchanged for media containing 10 ng/ml IFNγ and 10 μg/ml LPS and the following compounds 3, 4, 21, 26 and the positive control L-NAME. The doses tested were: 0.5 μM, 1.0 μM, 5.0 μM, 10 μM, 25 μM, 50 μM, 100 μM, 250 μM, and 500 μM. Nitric oxide release was measured after 48 hours using the Griess reaction.

[4] = 50 uM pretreatment 24 hours, then LPS/IFNγ 48 hours, single replicates
[5] = 50 uM pretreatment 24 hours, then LPS/IFNγ 48 hours, read-out: Avg % Inhibition
[6] = 50 uM pretreatment 24 hours, then LPS/IFNγ 48 hours, single replicates, read-out: % inhibition
[7] = 50 μM pretreatment, read-out: inhibition of NO release following pretreatment
[8] = dose 0.5 μM, LPS/IFNγ, 48 hours
[9] = dose 100 μM, LPS/IFNγ, 48 hours
[10] = dose 250 μM, LPS/IFNγ, 48 hours
[11] = dose 500 μM, LPS/IFNγ, 48 hours

Compound: O=C(CCc1ccc(O)c(O)c1)Nc1ccc(O)c(O)c1 [Compound 57, 3-(3,4-dihydroxyphenyl)propionic acid 3,4-dihydroxyanilide]
- μM NO release Avg [1]: 23.756 µM
- % inhibition ([1]; single replicates): 16.40% and 20.74% and 5.97%
- inhibition at 50 µM ([1]; read-out: Avg. % Inhibition): 14.4%
- inhibition at 50 µM (microglia): 14%
- μM NO release [2, 4]: 0.000 µM
- inhibition at 50 µM [2, 5]: 100%
- inhibition at 50 µM [2, 6]: 100%
- inhibition at 50 µM [2, 7]: > 75%
- % inhibition [3]: −6.36% and −3.40% and −1.92%
- inhibition at 50 µM [3]: -3.89%

Compound: O=C(CCc1ccc(O)c(O)c1)NCc1ccc(O)c(O)c1 [Compound 58, 3-(3,4-dihydroxyphenyl)propionic acid 3,4-dihydroxybenzylamide]
- μM NO release Avg [1]: 26.605 µM
- % inhibition ([1]; single replicates): 9.89% and 2.05% and 0.37%
- inhibition at 50 µM ([1]; read-out: Avg. % Inhibition): 4.1%
- inhibition at 50 µM (microglia): 4%
- % inhibition [2, 4]: 77.86% and 69.95%
- inhibition at 50 µM [2, 5]: 72.5%
- inhibition at 50 µM [2, 6]: 69.6%
- % inhibition [3]: −13.26% and −11.95%
- inhibition at 50 µM [3]: -12.6%

Compound: Oc1cc2ncc3cnc4cc(O)c(O)cc4c3c2cc1O [Compound 85, dibenzo[c,f][2,7]napthyridine-2,3,10,11-tetraol]
- μM NO release Avg [1]: 23.445 µM
- % inhibition ([1]; single replicates): 24.54% and 12.660% and 9.33%
- inhibition at 50 µM ([1]; read-out: Avg. % Inhibition): 15.5%
- inhibition at 50 µM (microglia): 16%
- % inhibition [2, 4]: 97.27% and 94.23%
- inhibition at 50 µM [2, 5]: 94.9%
- inhibition at 50 µM [2, 6]: 93.3%
- inhibition at 50 µM [2, 7]: > 75%
- % inhibition [3]: −14.41% and −19.01% and −16.88%
- inhibition at 50 µM [3]: -16.8%

Compound: Oc1ccc(CN(Cc2ccc(O)c(O)c2)Cc2ccc(O)c(O)c2)cc1O [Compound 75, tris(3,4-dihydroxybenzyl)amine]
- μM NO release Avg [1]: 23.343 µM
- % inhibition ([1]; single replicates): 24.54% and 12.06% and 10.97%
- inhibition at 50 µM ([1]; read-out: Avg. % Inhibition): 15.9%
- inhibition at 50 µM (microglia): 16%
- % inhibition [2, 4]: 60.46% and 56.98%
- inhibition at 50 µM [2, 5]: 59.6%
- inhibition at 50 µM [2, 6]: 61.4%
- % inhibition [3]: 2.52% and −2.74% and 5.81%
- inhibition at 50 µM [3]: 1.86%

Compound: O=C(Nc1ccc(O)c(O)c1)C(=O)Nc1ccc(O)c(O)c1 [Compound 63, oxalic acid bis(3,4-dihydroxyanilide)]
- μM NO release Avg [1]: 23.193 µM
- % inhibition ([1]; single replicates): 15.27%
- inhibition at 50 µM ([1]; read-out: Avg. % Inhibition): 14.2%
- inhibition at 50 µM ([1]; single replicates, read-out: % inhibition): 11.9%
- inhibition at 50 µM (microglia): 14%
- % inhibition [2, 4]: 81.97%
- inhibition at 50 µM [2, 5]: 82.1%
- inhibition at 50 µM [2, 6]: 82.3%
- inhibition at 50 µM [2, 7]: > 75%
- % inhibition [3]: −11.29% and −7.18% and −9.97%
- inhibition at 50 µM [3]: -9.48%

Compound: O=C(CCC(=O)NCc1ccc(O)c(O)c1)NCc1ccc(O)c(O)c1 [Compound 67, succinic acid bis(3,4-dihydroxybenzylamide)]
- μM NO release Avg [1]: 10.579 µM
- % inhibition ([1]; single replicates): 44.82% and 72.72% and 65.01%
- inhibition of NO release, in words ([1]; 50 uM, LPS/IFNγ stimulated microglia): effective inhibitors of NO release
- inhibition at 50 µM ([1]; read-out: Avg. % Inhibition): 60.9%
- inhibition at 50 µM (microglia): 61%
- % inhibition [2, 4]: 58.88% and 67.74%
- inhibition at 50 µM [2, 5]: 65.6%
- inhibition at 50 µM [2, 6]: 70.3%
- inhibition at 0.5 µM (Microglial cells; Microglia, 48 h, dose 0.5 μM, NO release, LPS/IFNγ, 48 hours, read-out: Avg % Inhibition): -2.75%
- inhibition at 1 µM (Microglial cells; Microglia, 48 h, dose 1 μM, NO release, LPS/IFNγ, 48 hours, read-out: Avg % Inhibition): 1.5%
- inhibition at 5 µM (Microglial cells; Microglia, 48 h, dose 5 μM, NO release, LPS/IFNγ): -0.75%
- inhibition at 10 µM (Microglial cells; Microglia, 48 h, dose 10 μM, NO release, LPS/IFNγ): -12.7%
- inhibition at 25 µM (Microglial cells; Microglia, 48 h, dose 25 μM, NO release, LPS/IFNγ): -5.5%
- inhibition at 50 µM (Microglial cells; Microglia, 48 h, dose 50 μM, NO release, LPS/IFNγ): -9.24%
- inhibition at 100 µM (Microglial cells; Microglia, 48 h, dose 100 μM, NO release, LPS/IFNγ, 48 hours, read-out: Avg % Inhibition): 16%
- inhibition at 250 µM (Microglial cells; Microglia, 48 h, dose 250 μM, NO release, LPS/IFNγ, 48 hours, read-out: Avg % Inhibition): 44.4%
- inhibition at 250 µM (Microglial cells; Microglia, 48 h, dose 250 μM, individual replicates, NO release, LPS/IFNγ, 48 hours, read-out: % inhibition): 45.3%
- inhibition at 500 µM (Microglial cells; Microglia, 48 h, dose 500 μM, NO release, LPS/IFNγ, 48 hours, read-out: Avg % Inhibition): 76.9%
- inhibition at 500 µM (Microglial cells; Microglia, 48 h, dose 500 μM, individual replicates, NO release, LPS/IFNγ, 48 hours, read-out: % inhibition): 75.5%
- inhibition at 500 µM (Microglial cells; Microglia, 48 h, highest concentration tested (500 μM), 48 hours, read-out: inhibited NO release by): 76%
- μM NO release (Microglial cells; [8]): 21.528 µM and 20.278 µM and 20.417 µM
- μM NO release (No LPS average subtracted) (Microglial cells; [8]): 19.83 µM and 18.58 µM and 18.72 µM
- % inhibition (Microglial cells; dose 0.5 μM, individual replicates, NO release, LPS/IFNγ, 48 hours): −7.00% and −0.25% and −1.00%
- μM NO release (Microglial cells; dose 1 μM, LPS/IFNγ, 48 hours): 21.528 µM and 19.306 µM and 19.028 µM
- μM NO release (No LPS average subtracted) (Microglial cells; dose 1 μM, LPS/IFNγ, 48 hours): 19.83 µM and 17.61 µM and 17.33 µM
- % inhibition (Microglial cells; dose 1 μM, individual replicates, NO release, LPS/IFNγ, 48 hours): −7.00% and 5.00% and 6.50%
- μM NO release (Microglial cells; dose 5 μM, LPS/IFNγ, 48 hours): 21.389 µM and 19.583 µM and 20.139 µM
- μM NO release (No LPS average subtracted) (Microglial cells; dose 5 μM, LPS/IFNγ, 48 hours): 19.69 µM and 17.88 µM and 18.44 µM
- % inhibition (Microglial cells; dose 5 μM, individual replicates, NO release, LPS/IFNγ, 48 hours): −6.25% and 3.50% and 0.50%
- μM NO release (Microglial cells; dose 10 μM, LPS/IFNγ, 48 hours): 22.917 µM and 22.083 µM and 22.778 µM
- μM NO release (No LPS average subtracted) (Microglial cells; dose 10 μM, LPS/IFNγ, 48 hours): 21.22 µM and 20.38 µM and 21.08 µM
- % inhibition (Microglial cells; dose 10 μM, individual replicates, NO release, LPS/IFNγ, 48 hours): −14.49% and −9.99% and −13.74%
- μM NO release (Microglial cells; dose 25 μM, LPS/IFNγ, 48 hours): 21.944 µM and 20.556 µM and 21.250 µM
- μM NO release (No LPS average subtracted) (Microglial cells; dose 25 μM, LPS/IFNγ, 48 hours): 20.24 µM and 18.86 µM and 19.55 µM
- % inhibition (Microglial cells; dose 25 μM, individual replicates, NO release, LPS/IFNγ, 48 hours): −1.75%
- μM NO release (Microglial cells; dose 50 μM, LPS/IFNγ, 48 hours): 22.639 µM and 21.111 µM and 22.083 µM
- μM NO release (No LPS average subtracted) (Microglial cells; dose 50 μM, LPS/IFNγ, 48 hours): 20.94 µM and 19.41 µM and 20.38 µM
- % inhibition (Microglial cells; dose 50 μM, individual replicates, NO release, LPS/IFNγ, 48 hours): −12.99% and −4.75% and −9.99%
- μM NO release (Microglial cells; [9]): 17.917 µM and 14.583 µM and 19.306 µM
- μM NO release (No LPS average subtracted) (Microglial cells; [9]): 16.22 µM and 12.88 µM and 17.61 µM
- % inhibition (Microglial cells; dose 100 μM, individual replicates, NO release, LPS/IFNγ, 48 hours): 12.49% and 30.48% and 5.00%
- μM NO release (Microglial cells; [10]): 11.835 μM (2×) and 12.367 μM
- μM NO release (No LPS average subtracted) (Microglial cells; [10]): 10.14 μM (2×) and 10.67 μM
- % inhibition (Microglial cells; dose 250 μM, individual replicates, NO release, LPS/IFNγ, 48 hours): 42.44%
- μM NO release (Microglial cells; [11]): 6.250 µM and 5.707 µM and 5.978 µM
- μM NO release (No LPS average subtracted) (Microglial cells; [11]): 4.55 µM and 4.01 µM and 4.28 µM
- % inhibition (Microglial cells; dose 500 μM, individual replicates, NO release, LPS/IFNγ, 48 hours): 78.38%
- % inhibition [3]: −27.48% and −14.06% and −17.41%
- inhibition at 50 µM [3]: -19.6%
